pIC50: −log10 of the molar value.
What was measured:
[1] = biological target: USP25 (Homo sapiens (Human), UniProt Q9UHP3); experiment: Ubiquitin-Rhodamine 110 Assay for USP25 Activity; assay type: biochemical; conditions: Ub-Rh110 substrate 25 nM
Method: The assay was performed in a final volume of 9 μL in assay buffer containing 20 mM Tris-HCl (pH 8.0, (1M Tris-HCl, pH 8.0 solution; Corning 46-031-CM)), 3 mM BME (2-Mercaptoethanol; Sigma 63689-25ML-F), 0.03% BGG (0.22 μM filtered, Sigma, G7516-25G), and 0.01% Triton X-100 (Sigma, T9284-10L). Nanoliter quantities of 10-point, 3-fold serial dilution in DMSO was pre-dispensed into 1536 assay plates (Corning, #3724BC) for a final test concentration of 25 μM to 1.3 nM, top to lowest dose, respectively. Enzyme USP25, construct USP25-His6, (Boston Biochem E-546). […] Fluorescence was read on the Envision (Excitation at 485 nm and Emission at 535 nm; Perkin Elmer) or on the PheraSTAR (Excitation at 485 nm and Emission at 535 nm; BMG Labtech).
For both the USP28 and USP25 assay formats Data were reported as percent inhibition compared with control wells based on the following equation: % inh=1−((FLU−AveLow)/(AveHigh−AveLow)) where FLU=measured Fluorescence, AveLow=average Fluorescence of no enzyme control (n=16), and AveHigh=average Fluorescence of DMSO control (n=16). IC50 values were determined by curve fitting of the standard 4 parameter logistic fitting algorithm included in the Activity Base software package: IDBS XE Designer Model205. […]

[2] = biological target: USP28 (Homo sapiens (Human), UniProt Q96RU2); experiment: Ubiquitin-Rhodamine 110 Assay for USP28 Activity; assay type: biochemical; conditions: Ub-Rh110 substrate 25 nM
USP28, sequence (Q96RU2 whole entry): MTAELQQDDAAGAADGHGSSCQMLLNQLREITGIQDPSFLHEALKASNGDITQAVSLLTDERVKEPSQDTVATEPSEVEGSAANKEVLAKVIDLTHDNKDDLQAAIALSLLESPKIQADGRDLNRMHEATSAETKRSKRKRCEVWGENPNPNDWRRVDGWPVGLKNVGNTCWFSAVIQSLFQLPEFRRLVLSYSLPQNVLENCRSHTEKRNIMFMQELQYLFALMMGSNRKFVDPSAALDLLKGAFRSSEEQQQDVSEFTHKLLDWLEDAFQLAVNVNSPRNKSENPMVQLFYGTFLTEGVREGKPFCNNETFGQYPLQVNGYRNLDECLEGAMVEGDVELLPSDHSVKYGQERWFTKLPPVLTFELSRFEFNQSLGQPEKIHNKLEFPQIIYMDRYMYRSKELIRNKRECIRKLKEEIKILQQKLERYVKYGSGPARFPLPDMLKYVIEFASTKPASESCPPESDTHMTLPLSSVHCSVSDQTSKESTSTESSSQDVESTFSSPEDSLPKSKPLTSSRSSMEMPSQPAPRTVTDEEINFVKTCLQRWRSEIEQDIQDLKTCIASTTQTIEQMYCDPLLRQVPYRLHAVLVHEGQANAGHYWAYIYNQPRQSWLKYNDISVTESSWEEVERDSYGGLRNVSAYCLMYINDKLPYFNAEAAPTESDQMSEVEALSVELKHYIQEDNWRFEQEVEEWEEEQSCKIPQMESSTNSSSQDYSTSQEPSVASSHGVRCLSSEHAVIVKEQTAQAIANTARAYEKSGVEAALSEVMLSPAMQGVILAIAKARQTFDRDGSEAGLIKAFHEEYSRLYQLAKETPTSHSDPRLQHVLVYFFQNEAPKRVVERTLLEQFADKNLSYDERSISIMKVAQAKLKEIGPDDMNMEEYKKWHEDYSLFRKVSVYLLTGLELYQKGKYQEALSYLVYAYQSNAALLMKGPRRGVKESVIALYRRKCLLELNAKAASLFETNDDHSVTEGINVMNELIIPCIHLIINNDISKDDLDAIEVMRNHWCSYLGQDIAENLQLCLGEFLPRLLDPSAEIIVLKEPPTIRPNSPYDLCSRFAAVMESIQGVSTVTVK
Method: Each assay was performed in a final volume of 20 μL in assay buffer containing 20 mM Tris-HCl (pH 8.0, (1M Tris-HCl, pH 8.0 solution; Corning 46-031-CM)), 2 mM CaCl2 (1M Calcium Chloride solution; Sigma #21114) 2 mM BME (2-Mercaptoethanol; Sigma 63689-25ML-F), 0.01% Prionex ([…] filtered, Sigma #G-0411), and 0.01% Triton X-100. Stock compound solutions were stored at −20° C. as 10 mM in DMSO. Up to 1 month prior to the assay, 2 mM test compounds were pre-dispensed into assay plates (Black, low volume; Corning #3820) and frozen at −20° C. Prestamped assay plates were allowed to come to room temperature on the day of the assay. […] Plates were incubated stacked for 90 minutes at room temperature before fluorescence was read on the Envision (Excitation at 485 nm and Emission at 535 nm; Perkin Elmer) or on the PheraSTAR (Excitation at 485 nm and Emission at 535 nm; BMG Labtech).
For follow-up studies, Each assay was performed in a final volume of 15 μL in assay buffer containing 20 mM Tris-HCl (pH 8.0, (1M Tris-HCl, pH 8.0 solution; Corning 46-031-CM)), 3 mM BME (2-Mercaptoethanol; Sigma 63689-25ML-F), 0.03% BGG ([…] filtered, Sigma, G7516-25G), and 0.01% Triton X-100 (Sigma, T9284-10L). […] Fluorescence was read on the Envision (Excitation at 485 nm and Emission at 535 nm; Perkin Elmer) or on the PheraSTAR (Excitation at 485 nm and Emission at 535 nm; BMG Labtech). […]

USP25, sequence (Q9UHP3 whole entry): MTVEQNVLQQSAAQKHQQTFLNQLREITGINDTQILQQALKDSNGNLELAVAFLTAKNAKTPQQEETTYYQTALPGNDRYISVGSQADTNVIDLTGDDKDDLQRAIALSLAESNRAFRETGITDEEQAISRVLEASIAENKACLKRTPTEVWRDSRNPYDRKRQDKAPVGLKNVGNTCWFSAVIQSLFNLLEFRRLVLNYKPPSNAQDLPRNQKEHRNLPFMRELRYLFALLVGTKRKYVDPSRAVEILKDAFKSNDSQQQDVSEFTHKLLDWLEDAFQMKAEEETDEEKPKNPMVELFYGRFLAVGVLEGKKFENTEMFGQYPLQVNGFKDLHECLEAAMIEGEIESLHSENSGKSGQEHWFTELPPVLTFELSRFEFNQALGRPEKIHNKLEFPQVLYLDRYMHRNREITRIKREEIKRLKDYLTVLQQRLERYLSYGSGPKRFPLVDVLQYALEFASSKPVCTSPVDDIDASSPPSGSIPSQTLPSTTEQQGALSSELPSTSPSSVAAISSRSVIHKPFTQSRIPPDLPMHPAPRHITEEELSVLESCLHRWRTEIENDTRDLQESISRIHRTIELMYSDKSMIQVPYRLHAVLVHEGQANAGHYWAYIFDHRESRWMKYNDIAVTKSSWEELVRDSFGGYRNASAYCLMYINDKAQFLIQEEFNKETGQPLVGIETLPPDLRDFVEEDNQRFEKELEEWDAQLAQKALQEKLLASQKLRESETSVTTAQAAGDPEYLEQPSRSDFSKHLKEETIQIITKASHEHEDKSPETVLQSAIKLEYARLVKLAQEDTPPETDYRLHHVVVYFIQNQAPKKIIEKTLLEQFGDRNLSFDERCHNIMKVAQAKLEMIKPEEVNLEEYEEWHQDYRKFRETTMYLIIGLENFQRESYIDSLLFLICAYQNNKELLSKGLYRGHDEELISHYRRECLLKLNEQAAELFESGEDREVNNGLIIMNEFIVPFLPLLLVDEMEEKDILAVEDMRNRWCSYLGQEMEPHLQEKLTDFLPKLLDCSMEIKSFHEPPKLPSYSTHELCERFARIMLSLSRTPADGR

Question: How did the pIC50 [1] turn out when `Cc1cnc2c(N)c(C(=O)NCCc3cc(F)c(N4CC5CNCC(C4)O5)cc3F)sc2n1` [Compound I-20] was run?
Answer: > 6.70

Question: And the pIC50 [2]?
Answer: > 6.70

Source: patent US11325917B2, “Thienopyrazine carboxamides as ubiquitin-specific protease inhibitors” (Valo Health, Inc., priority 2016, dated 2022)
